Results reported in ChEMBL document CHEMBL5030558, “Optimization and Evaluation of Novel Antifungal Agents for the Treatment of Fungal Infection” (J Med Chem, 2021).
In brackets after ≈: the same amount, converted by molar mass. Activity calls are given as the source filed them. No cut-off for these calls is given here.

Experiments:
[1] = tested on: Trichophyton mentagrophytes; test: Fungicidal activity against Trichophyton mentagrophytes KCCM60449 at 8 times after 24 hrs by time-kill kinetics assay; format: functional, organism-based
[2] = tested on: Trichophyton rubrum; test: Fungicidal activity against Trichophyton rubrum KCCM60450 at 8 times after 24 hrs by time-kill kinetics assay; format: functional, organism-based
[3] = tested on: Cryptococcus neoformans; test: Antifungal activity against Cryptococcus neoformans H99 assessed as reduction in fungal growth incubated for 72 hrs by CLSI based broth microdilution method; format: functional
[4] = tested on: Nakaseomyces glabratus; test: Antifungal activity against Candida glabrata BG2 assessed as reduction in fungal growth incubated for 48 hrs by CLSI based broth microdilution method; format: functional
[5] = Stability in rat liver microsomes assessed as parent compound remaining after 30 mins; format: ADME, Microsome; settings: microsomes, 0.5 h
[6] = Stability in human liver microsomes assessed as parent compound remaining after 30 mins; format: ADME, Microsome; settings: read-out: Stability
[7] = Stability in mouse liver microsomes assessed as parent compound remaining after 30 mins; format: ADME, Microsome; settings: microsomes, 0.5 h
[8] = tested on: Candida albicans; test: Antifungal activity against Candida albicans ATCC SC5314 assessed as reduction in fungal growth incubated for 48 hrs by CLSI based broth microdilution method; format: functional
[9] = tested on: Aspergillus fumigatus; test: Antifungal activity against Aspergillus fumigatus AF293 assessed as reduction in fungal growth incubated for 48 hrs by CLSI based broth microdilution method; format: functional
[10] = target: CYP2D6 (Homo sapiens, UniProt P10635); test: Inhibition of CYP2D6 (unknown origin) at 10 uM relative to control; format: ADME
Chain of CYP2D6 (P10635 whole entry): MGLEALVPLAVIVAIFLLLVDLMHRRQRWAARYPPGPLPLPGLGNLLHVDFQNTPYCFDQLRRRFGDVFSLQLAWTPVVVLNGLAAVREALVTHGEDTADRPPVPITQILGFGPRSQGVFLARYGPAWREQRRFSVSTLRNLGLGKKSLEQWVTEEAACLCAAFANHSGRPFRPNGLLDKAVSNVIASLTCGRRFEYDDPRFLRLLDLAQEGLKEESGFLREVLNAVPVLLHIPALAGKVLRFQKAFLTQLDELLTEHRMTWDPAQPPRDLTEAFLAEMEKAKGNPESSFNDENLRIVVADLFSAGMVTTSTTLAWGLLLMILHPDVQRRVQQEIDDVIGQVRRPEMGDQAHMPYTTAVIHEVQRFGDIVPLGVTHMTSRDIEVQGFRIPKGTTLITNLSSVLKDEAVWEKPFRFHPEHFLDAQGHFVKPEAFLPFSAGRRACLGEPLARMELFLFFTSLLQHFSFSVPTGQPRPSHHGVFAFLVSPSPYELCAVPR

[11] = target: CYP3A4 (Homo sapiens, UniProt P08684); test: Inhibition of CYP3A4 (unknown origin) at 10 uM relative to control; format: ADME
Chain of CYP3A4 (P08684 whole entry): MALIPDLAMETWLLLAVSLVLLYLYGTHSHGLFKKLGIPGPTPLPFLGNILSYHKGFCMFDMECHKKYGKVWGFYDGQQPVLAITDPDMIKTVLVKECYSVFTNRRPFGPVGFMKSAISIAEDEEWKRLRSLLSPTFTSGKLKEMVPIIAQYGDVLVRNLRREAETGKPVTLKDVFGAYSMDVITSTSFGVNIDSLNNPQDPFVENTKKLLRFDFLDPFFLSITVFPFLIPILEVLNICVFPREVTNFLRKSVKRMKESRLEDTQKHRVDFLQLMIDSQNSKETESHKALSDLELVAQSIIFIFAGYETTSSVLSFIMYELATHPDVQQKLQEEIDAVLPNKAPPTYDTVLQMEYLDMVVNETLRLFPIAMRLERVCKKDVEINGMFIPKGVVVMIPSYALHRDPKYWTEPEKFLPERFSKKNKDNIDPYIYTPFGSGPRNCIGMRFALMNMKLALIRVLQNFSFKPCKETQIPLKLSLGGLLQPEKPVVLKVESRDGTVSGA

[12] = target: CYP2C19 (Homo sapiens, UniProt P33261); test: Inhibition of CYP2C19 (unknown origin) at 10 uM relative to control; format: ADME
Chain of CYP2C19 (P33261 whole entry): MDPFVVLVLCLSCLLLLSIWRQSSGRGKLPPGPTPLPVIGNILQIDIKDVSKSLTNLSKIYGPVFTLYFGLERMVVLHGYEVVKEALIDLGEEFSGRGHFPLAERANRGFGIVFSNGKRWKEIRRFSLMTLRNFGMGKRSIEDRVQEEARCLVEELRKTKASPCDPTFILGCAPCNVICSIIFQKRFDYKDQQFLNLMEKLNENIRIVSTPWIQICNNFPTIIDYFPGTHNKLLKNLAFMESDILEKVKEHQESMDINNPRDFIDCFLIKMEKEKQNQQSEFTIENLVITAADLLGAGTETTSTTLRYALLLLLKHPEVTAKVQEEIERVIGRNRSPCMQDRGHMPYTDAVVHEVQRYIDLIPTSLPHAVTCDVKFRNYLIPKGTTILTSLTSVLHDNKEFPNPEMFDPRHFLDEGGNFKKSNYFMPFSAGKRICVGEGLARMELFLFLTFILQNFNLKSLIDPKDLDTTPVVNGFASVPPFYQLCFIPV

[13] = target: Cytochrome P450 3A4 (Homo sapiens, UniProt P08684); test: Inhibition of CYP3A4 (unknown origin) relative to control; format: ADME
Chain of Cytochrome P450 3A4 (P08684 whole entry): as the sequence (P08684 whole entry) above

[14] = target: Cytochrome P450 2C9 (Homo sapiens, UniProt P11712); test: Inhibition of CYP2C9 (unknown origin) relative to control; format: ADME
Chain of Cytochrome P450 2C9 (P11712 whole entry): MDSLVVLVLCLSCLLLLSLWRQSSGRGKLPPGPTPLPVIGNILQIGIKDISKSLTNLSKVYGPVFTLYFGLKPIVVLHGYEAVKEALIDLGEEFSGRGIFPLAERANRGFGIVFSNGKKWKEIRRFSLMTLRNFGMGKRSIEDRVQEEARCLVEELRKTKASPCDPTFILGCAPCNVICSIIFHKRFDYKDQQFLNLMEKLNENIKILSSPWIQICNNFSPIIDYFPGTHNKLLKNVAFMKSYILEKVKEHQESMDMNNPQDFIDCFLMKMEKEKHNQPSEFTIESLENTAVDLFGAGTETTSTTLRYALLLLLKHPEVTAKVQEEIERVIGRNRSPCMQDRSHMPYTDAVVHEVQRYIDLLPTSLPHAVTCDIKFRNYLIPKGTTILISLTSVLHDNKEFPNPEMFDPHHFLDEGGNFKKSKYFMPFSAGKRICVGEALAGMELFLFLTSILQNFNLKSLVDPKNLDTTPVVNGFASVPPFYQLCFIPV

[15] = target: Cytochrome P450 2D6 (Homo sapiens, UniProt P10635); test: Inhibition of CYP2D6 (unknown origin); format: ADME
Chain of Cytochrome P450 2D6 (P10635 whole entry): as the sequence (P10635 whole entry) above

[16] = Stability in rat plasma assessed as parent compound remaining after 30 to 120 mins; format: ADME, cell-free; settings: time 30-120 min
[17] = Stability in human plasma assessed as parent compound remaining after 30 to 120 mins; format: ADME, cell-free; settings: time 30-120 min
[18] = tested on: Cryptococcus neoformans; test: Fungicidal activity against Cryptococcus neoformans H99 at 8 times of MIC after 12 hrs by time-kill kinetics assay; format: functional, organism-based
[19] = tested on: Trichophyton rubrum; test: Ex vivo antifungal activity against Trichophyton rubrum KCCM60450 infected in human nail assessed as reduction in ATP level at 10 % w/w after 24 hrs; format: functional; set-up: scale not given: the % may be the effect or the level left
[20] = tested on: Candida albicans; test: Induction of drug resistance in Candida albicans ATCC SC5314 assessed as increase in EZC IC50 at 8 time IC50 after 35 days; format: functional, organism-based; settings: time 35.0 day
[21] = tested on: Cryptococcus neoformans; test: Fungicidal activity against Cryptococcus neoformans H99 at 8 times of MIC after 24 hrs by time-kill kinetics assay; format: functional, organism-based
[22] = tested on: Nakaseomyces glabratus; test: Induction of drug resistant in Candida glabrata BG2 assessed as increase in EZC IC50 at 16 times IC50; format: functional, organism-based
[23] = tested on: Nakaseomyces glabratus; test: Induction of drug resistance in Candida glabrata BG2 assessed as increase in ECZ IC50 at 8 times IC50 after 4 days; format: functional, organism-based; settings: BG2, 96 h
[24] = tested on: Candida albicans; test: Induction of drug resistance in Candida albicans ATCC SC5314 assessed as increase in EZC IC50 at 8 time IC50 after 7 days; format: functional, organism-based; settings: time 7.0 day
[25] = tested on: Candida albicans; test: Induction of drug resistant in Candida albicans ATCC SC5314 assessed as increase in EZC IC50 at 16 times IC50; format: functional, organism-based
[26] = tested on: Candida albicans; test: Induction of drug resistance in Candida albicans ATCC SC5314 assessed as increase in FCZ IC50 at 8 times IC50 measured after 5 to 22 days; format: functional, organism-based
[27] = tested on: Candida albicans; test: Induction of drug resistant in Candida albicans ATCC SC5314 assessed as increase in FCZ IC50 at 16 times IC50; format: functional, organism-based
[28] = tested on: Nakaseomyces glabratus; test: Induction of drug resistant in Candida glabrata BG2 assessed as increase in FCZ IC50 at 16 times IC50; format: functional, organism-based
[29] = tested on: Nakaseomyces glabratus; test: Induction of drug resistance in Candida glabrata BG2 assessed as increase in FCZ IC50 at 8 times IC50 after 23 days; format: functional, organism-based; settings: BG2, 552 h

Question: With `CN(C/C=C/C#CC(C)(C)C)Cc1cccc2ccccc12` as the compound, how does the Activity [1] read?
Answer: The Activity was “inactive”.

Question: And the Activity [2]?
Answer: The Activity was “inactive”.

Question: With `CCCCC(NC)C(=O)NCCc1ccc(-c2ccc(Cl)c(Cl)c2)cc1.Cl` (racemic) as the compound, how does the MIC [3] read?
Answer: The MIC was 4 µg/mL.

Question: What about the MIC [4] of the same compound?
Answer: The MIC was 8 µg/mL.

Question: What about the Stability [5] of the same compound?
Answer: The Stability was “Unstable”.

Question: And the remaining at 0.5 h [6]?
Answer: The remaining at 0.5 h was > 85%.

Question: What about the Stability [7] of the same compound?
Answer: The Stability was “Unstable”.

Question: What about the MIC [8] of the same compound?
Answer: Its MIC is 8 µg/mL.

Question: What about the MIC [9] of the same compound?
Answer: Its MIC is 8 µg/mL.

Question: With `CCCCC(N)C(=O)NCCc1ccc(-c2ccc(Cl)c(Cl)c2)cc1.Cl` (racemic) as the compound, how does the inhibition at 10 µM [10] read?
Answer: Its inhibition at 10 µM is > 70%.

Question: And the MIC [3]?
Answer: Its MIC is 1 µg/mL.

Question: And the MIC [4]?
Answer: The MIC was 4 µg/mL.

Question: And the remaining at 0.5 h [6]?
Answer: The remaining at 0.5 h was > 85%.

Question: And the MIC [8]?
Answer: Its MIC is 2 µg/mL.

Question: What about the inhibition at 10 µM [11] of the same compound?
Answer: The inhibition at 10 µM was > 70%.

Question: And the inhibition at 10 µM [12]?
Answer: Its inhibition at 10 µM is > 70%.

Question: And the MIC [9]?
Answer: The MIC was 4 µg/mL.

Question: Which results are given for `CCCC(N)C(=O)NCCc1ccc(OCc2ccc(C(F)(F)F)cc2)cc1.Cl` (racemic)?
Answer: MIC [3]: 16 µg/mL; MIC [4]: 32 µg/mL; inhibition (INH) [13]: > 70%; MIC [8]: 16 µg/mL; inhibition (INH) [14]: > 70%; MIC [9]: 32 µg/mL

Question: With `CCCC(NC)C(=O)NCCc1ccc(-c2ccc(C(F)(F)F)cc2)cc1.Cl` (racemic) as the compound, how does the “inhibition (INH)” value [15] read?
Answer: The value was “Active”.

Question: What about the MIC [3] of the same compound?
Answer: The MIC was 16 µg/mL.

Question: What about the MIC [4] of the same compound?
Answer: The MIC was 32 µg/mL.

Question: What about the “inhibition (INH)” value [13] of the same compound?
Answer: The value was “Not Active”.

Question: And the MIC [8]?
Answer: The MIC was 32 µg/mL.

Question: What about the “inhibition (INH)” value [14] of the same compound?
Answer: Its value is “Not Active”.

Question: And the MIC [9]?
Answer: The MIC was 32 µg/mL.

Question: What does the source list for `CCCC(NC)C(=O)NCCc1ccc(-c2ccc(Cl)c(Cl)c2)cc1.Cl` (racemic)?
Answer: MIC [3]: 4 µg/mL; MIC [4]: 16 µg/mL; Stability [5]: Unstable; Stability [16]: > 95%; remaining at 0.5 h [6]: > 85%; Stability [7]: Unstable; MIC [8]: 16 µg/mL; Stability [17]: > 95%; MIC [9]: 8 µg/mL

Question: With `C[C@@H]1[C@H](O)[C@@H](C)/C=C/C=C/C=C/C=C/C=C/C=C/C=C/[C@H](O[C@@H]2O[C@H](C)[C@@H](O)[C@H](N)[C@@H]2O)C[C@@H]2O[C@](O)(C[C@@H](O)C[C@@H](O)[C@H](O)CC[C@@H](O)C[C@@H](O)CC(=O)O[C@H]1C)C[C@H](O)[C@H]2C(=O)O` [AMPHOTERICIN B] as the compound, how does the MIC [3] read?
Answer: The MIC was 0.25 µg/mL (≈ 0.271 µM).

Question: And the MIC [4]?
Answer: Its MIC is 0.5 µg/mL (≈ 0.541 µM).

Question: What about the MIC [8] of the same compound?
Answer: The MIC was 0.25 µg/mL (≈ 0.271 µM).

Question: And the Activity [18]?
Answer: The Activity was “Active”.

Question: What about the MIC [9] of the same compound?
Answer: The MIC was 1 µg/mL (≈ 1.08 µM).

Question: Which Activity [1] does the source give for `Cc1cc(C2CCCCC2)n(O)c(=O)c1` [CICLOPIROX] here?
Answer: The Activity was “inactive”.

Question: And the Activity [2]?
Answer: Its Activity is “inactive”.

Question: And the Activity [19]?
Answer: Its Activity is 24.21%.

Question: For `C=C1CCN([C@H](C)[C@](O)(Cn2cncn2)c2ccc(F)cc2F)CC1` [EFINACONAZOLE], which Activity [20] is on record?
Answer: The Activity was “Active”.

Question: What about the Activity [21] of the same compound?
Answer: Its Activity is “inactive”.

Question: What about the Activity [22] of the same compound?
Answer: The Activity was “Active”.

Question: And the IC50 [23]?
Answer: Its IC50 is 1 µg/mL (≈ 2.87 µM).

Question: And the Activity [24]?
Answer: Its Activity is “Active”.

Question: What about the Activity [25] of the same compound?
Answer: Its Activity is “Active”.

Question: And the Activity [19]?
Answer: Its Activity is 31.9%.

Question: Which results are given for `OC(Cn1cncn1)(Cn1cncn1)c1ccc(F)cc1F` [FLUCONAZOLE]?
Answer: Activity [21]: inactive; IC50 [26]: 64 µg/mL (≈ 209 µM); Activity [27]: Active; Activity [28]: Active; IC50 [29]: 64 µg/mL (≈ 209 µM)
